Columns and labels:
[1] = system: Mycobacterium tuberculosis; test: (§1) Inhibition of Mycobacterium tuberculosis expressing RNA polymerase RpoB S450L mutant after 10 mins using ribo green by rolling circle transcription assay
[2] = as §1
[3] = system: Mycobacterium tuberculosis; test: Ratio of compound MIC90 to Rifampin S MIC90 for Mycobacterium tuberculosis RNA polymerase RpoB S450L mutant
[4] = system: Mycobacterium tuberculosis; test: Ratio of compound MIC90 to Rifamycin S MIC90 for Mycobacterium tuberculosis RNA polymerase RpoB S450L mutant

CO[C@H]1/C=C/O[C@@]2(C)Oc3c(c4c5c(nn(CCO)c5c3C)C(=C(/C=N/N3CCN(C)CC3)C4=O)NC(=O)/C(C)=C\C=C\[C@H](C)[C@H](O)[C@@H](C)[C@@H](O)[C@@H](C)[C@H](OC(C)=O)[C@@H]1C)C2=O
logIC50 [1]: 1.48
IC50 [2]: 29.9 µM

CO[C@H]1/C=C/O[C@@]2(C)Oc3c(C)c(N(C)C)c4c(c3C2=O)C(=O)C=C(NC(=O)/C(C)=C\C=C\[C@H](C)[C@H](O)[C@@H](C)[C@@H](O)[C@@H](C)[C@H](OC(C)=O)[C@@H]1C)C4=O
Ratio IC50 [3]: 3
logIC50 [1]: 2.43
IC50 [2]: 270 µM

CO[C@H]1/C=C/O[C@@]2(C)Oc3c(C)c(OS(=O)(=O)c4ccc(C)cc4)c4c(c3C2=O)C(=O)C=C(NC(=O)/C(C)=C\C=C\[C@H](C)[C@H](O)[C@@H](C)[C@@H](O)[C@@H](C)[C@H](OC(C)=O)[C@@H]1C)C4=O
logIC50 [1]: 2.99
IC50 [2]: 982 µM
Ratio [4]: 5

CO[C@H]1/C=C/O[C@@]2(C)Oc3c(C)c(N)c4c(c3C2=O)C(=O)C=C(NC(=O)/C(C)=C\C=C\[C@H](C)[C@H](O)[C@@H](C)[C@@H](O)[C@@H](C)[C@H](OC(C)=O)[C@@H]1C)C4=O
Ratio IC50 [3]: 3
logIC50 [1]: 2.27
IC50 [2]: 186 µM

CO[C@H]1/C=C/O[C@@]2(C)Oc3c(C)c(NC4CCCCCC4)c4c(c3C2=O)C(=O)C=C(NC(=O)/C(C)=C\C=C\[C@H](C)[C@H](O)[C@@H](C)[C@@H](O)[C@@H](C)[C@H](OC(C)=O)[C@@H]1C)C4=O
Ratio IC50 [3]: 3
logIC50 [1]: 2.1
IC50 [2]: 127 µM

CO[C@H]1/C=C/O[C@@]2(C)Oc3c(C)c(O)c4c(c3C2=O)C(=O)C(/C=N/N2CCN(C)CC2)=C(NC(=O)/C(C)=C\C=C\[C@H](C)[C@H](O)[C@@H](C)[C@@H](O)[C@@H](C)[C@H](OC(C)=O)[C@@H]1C)C4=O [RIFAMPIN S]
logIC50 [1]: 1.67
IC50 [2]: 46.5 µM

CO[C@H]1/C=C/O[C@@]2(C)Oc3c(C)c(O)c4c(c3C2=O)C(=O)C=C(NC(=O)/C(C)=C\C=C\[C@H](C)[C@H](O)[C@@H](C)[C@@H](O)[C@@H](C)[C@H](OC(C)=O)[C@@H]1C)C4=O [RIFAMYCIN S]
logIC50 [1]: 1.56
IC50 [2]: 36 µM

CO[C@H]1/C=C/O[C@@]2(C)Oc3c(C)c(SC)c4c(c3C2=O)C(=O)C=C(NC(=O)/C(C)=C\C=C\[C@H](C)[C@H](O)[C@@H](C)[C@@H](O)[C@@H](C)[C@H](OC(C)=O)[C@@H]1C)C4=O
logIC50 [1]: 1.57
IC50 [2]: 37.5 µM
